Assay results published in patent US11840551B2, “Compositions and methods of modulating the immune response by activating alpha protein kinase 1” (Shanghai Yao Yuan Biotechnology Co., Ltd., priority 2017, dated 2023).

Tests used:
ALPK1 [1] = molecular target: T1, ALPK1 (Homo sapiens, UniProt Q96QP1); experiment: Thermal shift assay (SYPRO Orange) for binding to ALPK1; details: ALPK1 7 uM; 1, 5, 25, 125 uM compound; H1b-ADP shift at 5, 25 and 125 uM
Description: The thermal shift assay is widely used to determine the binding of a molecule to a protein of interest. The assay is based on the increase in thermal energy required for denaturation of a protein where another molecule is bound to the protein. SYPRO Orange is a fluorescent compound used in the detection of thermal shift. SYPRO Orange binds to hydrophobic surfaces of the protein, and water strongly quenches its fluorescence. When the protein unfolds, the exposed hydrophobic surfaces bind the dye, resulting in an increase in fluorescence. When another molecule is bound to the protein, an increase in the temperature required for unfolding of the protein is observed.
This assay system was used to determine whether or not chemically synthesized HBP, HMP-1bP, and H1b-ADP directly bind to ALPK1. […] Only H1b-ADP induced a shift of more than 1 degree, at each of the three highest concentrations tested, 5 uM, 25 uM, and 125 uM.

ALPK1 [2] = molecular target: T1, ALPK1; experiment: IL-8 and TNFα mRNA expression in HEK293 cells with control or ALPK1-directed siRNA (qPCR); type: cell-based; design: silence ALPK1 expression in HEK293 cells; endogenous in cells; host or cells: HEK293; details: control vs ALPK1-directed siRNA, 4 hours, HBP 500, 100, 20 uM, HMP-1bP 500, 100 uM, H1b-ADP 100, 20, 4, 0.8 nM
Description: To test whether HBP, HMP-1bP, and H1b-ADP were able to induce cytokine expression in an ALPK1 dependent manner, we used an ALPK1-directed small interfering RNA (siRNA) to silence ALPK1 expression in HEK293 cells. Cells were plated (1×10^4 cells/well) into 96-well plates and transfected with either control siRNA or ALPK1-directed siRNA according to the manufacturer's protocols (Lipofectamine™ RNAiMax™, Invitrogen 13778075). Following 2 days of culture, either (1) HBP (500 uM, 100 uM, 20 uM, FIG. 2A-2B) (2) HMP-1bP (500 uM, 100 uM, FIG. 3A-3B), (3) H1b-ADP (100 nM, 20 nM, 4 nM, 0.8 nM, FIG. 4A-4B) was added to culture medium and cells were harvested 4 hours later.

ALPK1 [3] = molecular target: T1, ALPK1; experiment: Cell-free kinase assay of ALPK1-dependent phosphorylation of IκB; type: biochemical; details: 2 nM ALPK1, with or without ATP, 1 hour
Description: We next tested whether H1b-ADP-induced autophosphorylation of ALPK1 was effective to activate NFκB using phosphorylation of IκB as a marker for this activity. Phosphorylation assays were performed according to standard protocols and phosphorylated protein was detected by gel electrophoresis and Western blotting using an antibody that detects phosphorylated IκB. Briefly, assays were performed in a 20 μl volume at 25° C. in assay buffer (25 mM HEPES pH 7.5, 50 mM KCl, 0.1 mM EDTA, 0.1 mM EGTA, 2 mM DTT, 1.5 mM CaCl2, 10 mM MgCl2) containing 2 nM ALPK1 and H1b-ADP […] with or without ATP, or either ALPK1 alone or H1b-ADP alone, both in the presence of ATP. After 1 hour of incubation, the reaction was loaded to denaturing gel for protein electrophoresis and Western was performed to detect phosphorylation of 1 kB using p-IkB antibody (Abcam).

CT26 cells = experiment: mRNA expression in CT26 tumor tissue after intratumoral injection (qPCR); type: in vivo, BALB/c mice; details: H1b-ADP 2.5 μg, 250 ng, 50 ng intratumoral, 4 hours post-injection
Description: We next asked whether H1b-ADP caused an increase in pro-inflammatory cytokines within the tumor. Tumor cells (2×10^5 per 100 μL CT26 cells) were inoculated subcutaneously into the right flank of BALB/c mice. 2.5 μg (n=2), 250 ng (n=2), 50 ng (n=2) of H1b-ADP or control (n=2) was intratumorally injected (20 uL) at day 7 post inoculation. 4 hours post-injection, tumor issues were dissected and harvested. Total RNA was isolated (TRIzol™, ThermoFisher) and cDNA was synthesized (PrimeScript™ RT reagent Kit, Takara) and amplified (AceQ™ qPCR SYBR™ Green Master Mix, Vazyme Biotech using a QuantStudio™ 7 Flex Real-Time PCR Systems (ThermoFisher) according to manufacturers' protocols.

[4] = test system: phosphatase activity in the serum; experiment: Incubation of H1b-ADP with FBS, product analysed by LC-MS; type: in vitro ADME, bovine; details: increasing incubation time, LC-MS; product determined to be AMP
Description: FBS contains 110-352 μU/ml alkaline phosphatase.

[5] = test system: mouse bone marrow-derived macrophages; experiment: Cxcl1 mRNA expression in bone marrow-derived macrophages (qPCR); type: cell-based; details: 0.4 nM or 2 nM H1b-ADP, 2.5 hours
Description: In these experiments, mouse bone marrow-derived macrophages were treated with 0.4 nM or 2 nM H1b-ADP for 2.5 hours and harvested for mRNA expression analysis of Cxcl1 by qPCR. […] Accordingly, very low doses of H1b-ADP, or an agonist thereof, may be used to enhance or potentiate an immune response in a local tissue.

ALPK1 [6] = molecular target: T1, ALPK1; experiment: IL8 secretion in HEK293 cells (IL8 ELISA) as indicator of ALPK1 activation; details: cells cultured with fetal bovine, human or mouse serum
Description: Phosphatase such as the alkaline phosphatase may be responsible for H1b-ADP hydrolysis. We pre-mixed H1b-ADP with phosphatase inhibitor sodium orthovanadate (Na3VO4) before incubation with FBS. […] We hypothesized that the accumulation of hydrolysis product AMP can inhibit phosphatase activity.
A number of H1b-ADP derivative compounds were made as described herein and tested for biological activity as agonists of ALPK1 in vitro. In these experiments, serial dilutions of the compounds were added to the tissue culture media of HEK293 cells with (FIG. 27B, FIG. 28B, FIG. 29B) or without (FIG. 26, FIG. 27A, FIG. 28A, FIG. 29A) 10% FBS, as indicated in the figures. After 4 hours, the cell supernatant was collected and analyzed for IL8 concentration using IL8 ELISA (BD) as an indicator of ALPK1 activation.

T1 sequence (Q96QP1 whole entry): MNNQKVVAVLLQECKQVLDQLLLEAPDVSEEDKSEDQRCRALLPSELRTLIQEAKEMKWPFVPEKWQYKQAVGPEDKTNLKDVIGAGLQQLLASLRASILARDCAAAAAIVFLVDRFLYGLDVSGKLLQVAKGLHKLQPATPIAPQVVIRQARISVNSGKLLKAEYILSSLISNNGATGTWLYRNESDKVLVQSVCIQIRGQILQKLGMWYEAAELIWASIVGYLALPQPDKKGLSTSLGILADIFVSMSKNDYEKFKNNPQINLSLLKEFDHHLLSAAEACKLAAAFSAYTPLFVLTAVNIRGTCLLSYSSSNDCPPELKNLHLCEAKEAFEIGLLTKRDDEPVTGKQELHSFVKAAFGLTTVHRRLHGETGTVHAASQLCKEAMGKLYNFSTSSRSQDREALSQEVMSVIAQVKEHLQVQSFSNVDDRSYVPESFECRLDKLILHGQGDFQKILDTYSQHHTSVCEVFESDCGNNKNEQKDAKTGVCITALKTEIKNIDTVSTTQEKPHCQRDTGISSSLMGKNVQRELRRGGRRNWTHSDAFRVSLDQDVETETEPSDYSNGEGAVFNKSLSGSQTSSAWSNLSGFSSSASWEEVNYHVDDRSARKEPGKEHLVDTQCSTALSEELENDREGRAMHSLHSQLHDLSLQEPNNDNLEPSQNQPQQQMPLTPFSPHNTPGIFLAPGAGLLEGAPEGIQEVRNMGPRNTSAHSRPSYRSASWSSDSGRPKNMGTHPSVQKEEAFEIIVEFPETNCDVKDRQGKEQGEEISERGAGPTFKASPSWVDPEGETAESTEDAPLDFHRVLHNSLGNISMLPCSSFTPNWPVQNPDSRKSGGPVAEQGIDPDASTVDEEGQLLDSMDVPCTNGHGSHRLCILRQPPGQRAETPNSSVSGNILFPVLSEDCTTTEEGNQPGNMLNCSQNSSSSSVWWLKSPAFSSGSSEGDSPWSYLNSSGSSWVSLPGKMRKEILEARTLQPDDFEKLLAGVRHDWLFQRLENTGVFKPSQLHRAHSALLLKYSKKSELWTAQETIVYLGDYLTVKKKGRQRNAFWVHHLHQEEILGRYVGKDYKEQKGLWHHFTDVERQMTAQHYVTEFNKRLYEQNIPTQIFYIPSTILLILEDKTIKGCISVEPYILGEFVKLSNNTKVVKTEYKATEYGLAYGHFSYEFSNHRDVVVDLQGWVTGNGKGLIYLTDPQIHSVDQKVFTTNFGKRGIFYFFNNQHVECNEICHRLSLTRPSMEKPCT

| H1b-ADP amount on incubation with FBS [4] | H1b-ADP's activity to activate ALPK1 in HEK293 cells (IL8 secretion) (ALPK1 [6]) | SMILES | thermal shift of ALPK1 (ALPK1 [1]) | IL-8 mRNA expression (ALPK1 [2]) | TNFα mRNA expression (ALPK1 [2]) | IκB phosphorylation (ALPK1 [3]) | PD-1 and PD-L1 expression in tumor (CT26 cells) | mRNA expression of CD8, CD4, Foxp3 and T-bet in tumor (CT26 cells) | mRNA expression of inflammatory cytokine IL-1b, Tnfa, Ifn gamma, and IL-6, and chemokine Cxcl1 in tumor (CT26 cells) | Cxcl1 mRNA expression, fold change over non-treated control [5] |
| --- | --- | --- | --- | --- | --- | --- | --- | --- | --- | --- |
| – | – | O=P(O)(O)O[C@@H]1O[C@H]([C@H](O)CO)[C@@H](O)[C@H](O)[C@@H]1O [HMP-1bP, D-glycero-β-D-manno-heptose-1-phosphate] | Neither HBP nor HMP-1bP were able to induce a thermal shift | increased in an ALPK1-dependent manner | increased in an ALPK1-dependent manner | – | – | – | – | – |
| the H1b-ADP amount declined | greatly declined | Nc1ncnc2c1ncn2[C@@H]1O[C@H](COP(=O)(O)OP(=O)(O)O[C@@H]2O[C@H]([C@H](O)CO)[C@@H](O)[C@H](O)[C@@H]2O)[C@@H](O)[C@H]1O [Compound H1b-ADP, D-glycero-D-manno-heptose-1β-ADP] | – | increased in an ALPK1-dependent manner | increased in an ALPK1-dependent manner | IkB phosphorylation was detected only in the presence of both ALPK1 and H1b-ADP in the presence of ATP | increased in H1b-ADP injected tumor | increased upon H1b-ADP injection | increased upon H1b-ADP injection | showed a dose-dependent response |
